Here are results for five compounds from publication PMC7719495 (BioMed Research International, 2020).

Each structure is given as a SMILES string.

The test system of series [1] is plasma protein. The arrangement: method as in earlier work. The note with it: cited from earlier work.
Series [2] in a line: HPLC analysis of the content of AMPB in mice plasma and brain tissue. It is filed as in vivo, KM mice. The settings on record: compared with AMPB group; AMPB 3 mg/kg iv q.d.; POS 90 mg/kg gavage, zosuquidar 20 mg/kg, Ko143 10 mg/kg, elacridar 2.5 mg/kg iv, b.i.d. 4 days; 4 h after last administration. As to the method: POS, zosuquidar, Ko143, and elacridar were administered for 4 consecutive days (b.i.d., 9 a.m. and 9 p.m).
4 h after the last administration, the mouse eyeball was taken for blood sample acquisition, in a commercial 1.5 mL centrifuge tube containing the anticoagulant EDTA, with sterilized ophthalmic bending forceps. Samples were centrifuged at 3000 rpm for 10 min. And the bottom plasma was gently extracted and separated with micropipeter. Then, plasma proteins were precipitated by adding 300 μL methanol to 100 μL plasma, followed by vortex for 10 s and let it stand for 5 min. After that, the samples were centrifuged at 4°C, 13000 rpm, for 10 min. Finally, the plasma test solution was fulfilled by filtering it through the 0.22 μm microporous membrane.
After the completion of blood, the mice brain was quickly removed. Moderate brain tissue samples were mixed with physiological saline for homogenate preparation. And proteins were precipitated by adding 300 μL methanol to 100 μL homogenate, followed by vortex for 10 s, and let it stand for 5 min, and then centrifuged at 4°C, 13000 rpm, for 10 min. Finally, the brain test solution was fulfilled by filtering it through the 0.22 μm microporous membrane. […] The analytical column was a Diamonsil (2) C18 column (250 mm ×4.6 mm, 5 μm) maintained at 30°C. The mobile phase consisted of 10 mM ammonium acetate aqueous solution (PH4) and acetonitrile, with the flow rate of 1.0 mL/min and the injection volume of 50 μL.

In series [3] the test system is mice brain capillary endothelial cells (BCECs). The series can be described thus: AMPB uptake by BCECs, HPLC. The note with it: 30, 60, 120, 180 min, compared with AMPB group. It is filed as cell-based. The method, then:
The mice brain capillary endothelial cells (BCECs, cat. no. BNCC35187) were purchased from Beijing Beina Chuanglian Biotechnology Research Institute (Beijing, China). BCECs were resuscitated in a constant temperature water bath at 37°C and then inoculated in a petri dish. The cells were cultured with the 1640 medium containing 10% FBS in a 5% CO2 cell incubator at 37°C. The culture medium was changed every other day, and the cells were digested with 0.25% trypsin when they converged and proliferated to form a full layer at the bottom of the dish. 1 mL cell suspensions were seeded in 12-well plates at a density of 1 × 10^5 cells/mL per well. The drug was administered after the cells being completely adherent to the wall. 2.16 μM AMBP solution was prepared with the 1640 medium and then was used to prepare POS solution at concentrations of 2.85 μM, 5.71 μM, and 11.42 μM, 5 μM zosuquidar, 5 μM Ko143, 1 mM elacridar, and 40 g/L albumin solution, respectively.
The cells were randomly divided into the following 8 groups: 2.16 μM AMBP, 2.16 μM AMBP+POS (2.85 μM, 5.71 μM, and 11.42 μM), 2.16 μM AMBP+5 μM zosuquidar, 2.16 μM AMBP+5 μM Ko143, 2.16 μM AMBP+1 mM elacridar, and 2.16 μM AMBP+40 g/L albumin. Three wells were set at each time point in each group and cultured at 37°C. Cell samples were collected at 30 min, 60 min, 120 min, and 180 min after drug administration, respectively. BCECs were eluted with Hanks' balanced salt solution for 3 times and then incubated with 1% Triton X-100 (200 μL/per well) at 4°C for 12 h to lyse the cells.

Series [4] concerns plasma protein. Kind of series: Balanced (equilibrium) dialysis of free AMPB in in vitro plasma. It is filed as in vitro ADME, mouse. The settings on record: 37°C, 6 h. The method, then:
(§1) The equilibrium dialysis experiments were performed by the Thermo Fisher Scientific rapid equilibrium dialysis (RED) device. […] The prepared sample solutions were added into the holes of RED plate, respectively, with a 300 μL sample loading. In the corresponding buffer holes, 550 μL, 1% Triton X-100 solution was added. After the sample loading was completed, the sample was put into a 37°C constant temperature oscillator, and the dialysis was balanced at 100 rpm for 6 h. […] And then, the protein or drug-protein complexes with a molecular weight ≥ […] were retained by adding 1 mL of drug-containing plasma mixture into the Centrifree® overfiltration unit and centrifuging it at 13000 rpm and 4°C for 20 min.

For series [5], the system named is Cryptococcus neoformans. The series can be described thus: H&E staining of brain pathology in mice with cryptococcal meningitis. Format: in vivo. The note with it: AMPB 3 mg/kg, POS 180 mg/kg, 14 days, compared with model group.
Protocol: Except the control group, the mice in the other four groups were all injected with the lateral ventricular cryptococcus suspension at the dose of 1 × 10^8 CFU/mL, 5 μL for each mouse [19]. And the control group was injected with the same volume of normal saline. […] After 5 days, mice in each group were administered with the corresponding drugs mentioned above, continuously for 14 days. […] The mice were then anesthetized with ether for 24 h after the last administration. Next, the brain tissue was promptly removed for H&E staining and colonization detection of Cryptococcus neoformans. The mouse brain tissue was fixed with 4% paraformaldehyde at 25°C for 24 h, followed by washing with running water for 0.5 h [20, 21]. The brain was then dehydrated with 75%, 85%, 95%, and anhydrous ethanol for 6 h, 10 h, 4 h, and 2 h, respectively. After permeabilization with xylene I for 20 min and xylene II for 15 min, the brain was embedded in paraffin for 3 h and then cut into 5 μm slices using a microtome (RM2235, Leica Biosystems, Wetzlar, Germany) and roasted at 60°C. After dewaxing with xylene, the slices were stained with hematoxylin and eosin. Random photographs of three fields were acquired using a CX22 light microscope at ×400 magnification (Olympus Corporation, Tokyo, Japan).
Series [6] relates to plasma protein. The series can be described thus: Ultrafiltration analysis of free AMPB in in vitro plasma. It is filed as in vitro ADME. The settings on record: 37°C, 2 h, p < 0.0001 vs AMPB group. The method, then:
as §1

Series [7] relates to Cryptococcus neoformans. Kind of series: Counting of Cryptococcus neoformans colonies in the brain tissue. Format: in vivo. The settings on record: cryptococcal meningitis mice; AMPB 3 mg/kg, POS 180 mg/kg, 14 days; p < 0.01 compared with model group.
Protocol: Except the control group, the mice in the other four groups were all injected with the lateral ventricular cryptococcus suspension at the dose of 1 × 10^8 CFU/mL, 5 μL for each mouse [19]. And the control group was injected with the same volume of normal saline. […] After 5 days, mice in each group were administered with the corresponding drugs mentioned above, continuously for 14 days. And the time and frequency of administration are described above. The mice were then anesthetized with ether for 24 h after the last administration. Next, the brain tissue was promptly removed for H&E staining and colonization detection of Cryptococcus neoformans. The brain tissue was homogenized with normal saline at a ratio of 1 : 1 (g : v). And then, 100 μL homogenate suspension was gradient diluted to concentrations of 1, 0.1, 0.01, and 0.001 g/mL. At each concentration, 10 μL of brain tissue suspension was uniformly applied to yeast extract peptone dextrose medium and cultured in a 30°C incubator for 48 h [22]. Then, the colony count of cryptococcus neoformans was performed.
The mark [8] stands for this setting: 5 μM zosuquidar, 5 μM Ko143 or 1 mM elacridar + 2.16 μM AMPB.

On to `C[C@@H]1[C@H](O)[C@@H](C)/C=C/C=C/C=C/C=C/C=C/C=C/C=C/[C@H](O[C@@H]2O[C@H](C)[C@@H](O)[C@H](N)[C@@H]2O)C[C@@H]2O[C@](O)(C[C@@H](O)C[C@@H](O)[C@H](O)CC[C@@H](O)C[C@@H](O)CC(=O)O[C@H]1C)C[C@H](O)[C@H]2C(=O)O` [AMPB, amphotericin B], for which the “plasma protein binding rate” value in the series on plasma protein [1] is on record as 90%.
Turning to `COc1ccc2c3c([nH]c2c1)[C@H](CC(C)C)N1C(=O)[C@H](CCC(=O)OC(C)(C)C)NC(=O)[C@@H]1C3` [Ko143], in series [2], the “AMPB brain tissue/plasma drug ratio” value is reported as “no effect”, the “brain tissue concentration of AMPB” value is “no effect” and the “plasma drug concentration of AMPB” value was “no effect”. Besides, the “effect on AMPB uptake by BCECs” value in series [3] (setting [8]) is “no significant effect”.
As for `CC[C@@H]([C@H](C)O)n1ncn(-c2ccc(N3CCN(c4ccc(OC[C@@H]5CO[C@@](Cn6cncn6)(c6ccc(F)cc6F)C5)cc4)CC3)cc2)c1=O` [POS, posaconazole], the “effect on plasma free AMPB (balanced dialysis)” value is recorded as “prominently elevate” in the series with plasma protein [4] (POS 4 μg/mL + AMPB 0.5 μg/mL in mouse plasma, p < 0.05 vs AMPB group) and “prominently elevate” with plasma protein [4] (POS 8 μg/mL + AMPB 0.5 μg/mL in mouse plasma, p < 0.01 vs AMPB group). The “plasma protein binding rate” value in the series with plasma protein [1] is 98%. Further, in the series on Cryptococcus neoformans [5], the “cortical pathological injuries (inflammatory cell infiltration, bleeding), H&E staining” value was “improve the above pathological injuries”. Further, the “effect on AMPB uptake by BCECs” value in series [3] (POS 2.85, 5.71 and 11.42 μM + 2.16 μM AMPB) was “no significant effect”. In addition, the “effect on plasma concentration of free AMPB (ultrafiltration)” value in the series with plasma protein [6] (POS 4 μg/mL + AMPB 2.0 μg/mL in plasma) and with plasma protein [6] (POS 8 μg/mL + AMPB 2.0 μg/mL in plasma) was “potentially increase” in each case. Further, the “number of cryptococcus neoformans in the brain (colony culture)” value with Cryptococcus neoformans [7] is “evidently inhibit”.
For the compound `COc1cc2c(cc1OC)CN(CCc1ccc(NC(=O)c3cccc4c(=O)c5cccc(OC)c5[nH]c34)cc1)CC2` [elacridar], the “effect on AMPB uptake by BCECs” value in series [3] (setting [8]) is recorded as “no significant effect”.
Take `O[C@@H](COc1cccc2ncccc12)CN1CCN([C@@H]2c3ccccc3[C@@H]3[C@H](c4ccccc42)C3(F)F)CC1` [zosuquidar]: the “effect on AMPB uptake by BCECs” value in series [3] (setting [8]) is reported as “no significant effect”.
